Experiments:
[1] = test system: apoptotic cells in perihematomal area; assay: TUNEL analysis of apoptotic cells in perihematomal area; format: in vivo, rat; conditions: 14 days after ICH, n=3
Method: After the completion of the neuroimaging study, 14 days after ICH, animals were euthanized by an overdose of anesthetic (sevoflurane 8%) and perfused with PBS and 4% formaldehyde. The brain was removed, axially sliced (2 mm thick), fixed in 4% formaldehyde (4 hours), transferred to 20% sucrose in PBS (4°C), included in optimal cutting temperature compound (Sakura Finetek, Torrance, CA), and stored at −80°C. Slices were cut into 8‐μm‐thick slices using a cryostat (Sakura Finetek Europe BV, Leiden, The Netherlands).
Brain slices were dried at 38°C for 3 hours, and the optimal cutting temperature compound was then removed by washing the slices twice in PBS. Antigen retrieval was performed by immersion of slices in a thermal bath of citrate buffer (pH 6.0) for 20 minutes at 99°C. To detect apoptotic cells, a terminal deoxynucleotidyl transferase dUTP nick end labeling assay was performed. […] Slices were mounted (Polysciences, Eppelheim, Germany) and photographed in a Leica DMI 6000 B microscope with Leica Application Suite Advance Fluorescence software, version 1.0.0 (LAS AF; Leica Microsystems, Wetzlar, Germany).
A quantitative analysis of terminal deoxynucleotidyl transferase dUTP nick end labeling was performed using 3 animals from each group. […] Positive nuclei were counted manually.

[2] = test system: rat model of collagenase‐induced ICH; assay: Hematoma and lesion volume by T2‐weighted MRI in ICH rat model; format: in vivo
Method: Glucose levels were analyzed before surgery (mean 144.3±22.1 mg/dL). Rats were placed in a stereotaxic frame (Stoelting Co, Wood Dale, IL) under sevoflurane anesthesia. After drilling of a small burr hole, 1 μL of saline containing 0.2 U/μL bacterial collagenase type VII (Sigma‐Aldrich Corp, St. Louis, MO) was injected into the right striatum (0.6 mm anterior to bregma, −3.0 mm lateral and 5.5 mm depth) using a Hamilton syringe with a 30 G needle. Injections took place over a 10‐minute period, and the needle remained in place for additional 10 minutes before removal (1 mm/min). The burr hole was filled with bone wax (Ethicon, Somerville, NJ), and the scalp incision was closed with sutures.
. The same experimental design and setting were used to assess the effect of late (3 hours) CM352 treatment. Required sample size was calculated from previous studies using the same model21 in order to be able to detect a 25% effect size on hematoma growth versus controls (2‐tailed t test). Six animals per group are required to detect this difference with a power (1−β) of 0.8 and α=0.05. N was calculated using EPIDAT software (http://www.sergas.es/Saude-publica/EPIDAT-4-2). All treatments were given as a single bolus (jugular) 60 minutes after the collagenase injection for ICH induction. […]
Gradient‐echo pilot scans were performed at the beginning of each imaging session for accurate positioning of the animal inside the magnet bore. Multislice axial T2‐weighted imaging was performed at baseline (1 hour after IHC induction), and at 3 hours, 24 hours, and 14 days after ICH. T2‐weighted images were acquired using a RARE (factor n=4) sequence with the following acquisition parameters: field‐of‐view 19.2×19.2 mm^2, image matrix 192×192 (isotropic in‐plane resolution of 0.1×0.1 mm/pixel), 18 consecutive slices of 0.5 mm thickness.
Magnetic resonance data analysis was performed using Para Vision (Bruker Medical, Ettlingen, Germany), and images were processed with ImageJ (W. S. Rasband, National Institutes of Health, Bethesda, MD: http://rsb.info.nih.gov/ij). The analyzed region of interest was the hematoma and lesion region. Hematoma volumes (basal and 3 and 24 hours) as well as lesion volume at day 14 were manually traced from T2 maps, and the mean signal intensity was measured by 2 well‐trained imaging analysts blind to the experimental conditions.

[3] = 1 mg/kg 3 hours after collagenase, 5 hours
[4] = 1 mg/kg 3 hours after collagenase, 24 hours
[5] = 1 mg/kg iv 1 hour after collagenase, 3 hours
[6] = 1 mg/kg iv 1 hour after collagenase, 24 hours

## CNC(=O)c1ccc(Oc2ccc(S(=O)(=O)[C@]3(C(=O)NO)CCC4(CCNCC4)C3)cc2)cc1 [CM352, 4‐[4‐[[(3R)‐3‐(Hydroxycarbamoyl)‐8‐azaspiro[4.5]decan‐3‐yl]sulfonyl]phenoxy]‐N‐methylbenzamide]
[1]
  apoptosis (TUNEL‐positive cells) in the perihematomal area versus control: No effects on apoptosis
[2]; [3]
  hematoma expansion: 115±17%
  reduction of hematoma expansion versus control: 62%
[2]; [4]
  hematoma expansion: 114±50%
  reduction of hematoma expansion versus control: 58%
[2]; 1 mg/kg 3 hours after collagenase, up to day 14, P<0.05
  lesion size versus control: differences in lesion size were patent between the groups
[2]; 1 mg/kg 3 hours after collagenase, versus control P<0.01
  hematoma volume after late administration: hematoma stabilized
[2]; [5]
  hematoma expansion: 200±86%
  reduction of hematoma expansion versus control: 35%
[2]; 1 mg/kg iv 1 hour after collagenase, 3 hours after ICH
  reduction in hematoma volume compared with controls: 29%
[2]; [6]
  hematoma expansion: 133±63%
  reduction of hematoma expansion versus control: 56%
[2]; 1 mg/kg iv 1 hour after collagenase, 24 hours after ICH
  reduction in hematoma volume compared with controls: 46%
[2]; 1 mg/kg iv 1 hour after collagenase, 14 days
  lesion volume smaller than controls: 48%
[2]; early‐treatment experiment, 1 hour after collagenase, before treatment, n=6
  hematoma volume at 1 hour (basal): 23.2±3.5 mm^3
[2]; late‐treatment experiment, 1 hour after collagenase, before treatment, n=6
  hematoma volume at 1 hour: 16.0±1.9 mm^3
[2]; late‐treatment experiment, 3 hours after collagenase, time of treatment, n=6
  hematoma volume at 3 hours: 39.8±6.7 mm^3

— article PMC5669199, “CM352 Reduces Brain Damage and Improves Functional Recovery in a Rat Model of Intracerebral Hemorrhage” (Journal of the American Heart Association: Cardiovascular …, 2017)
